# Measurements from the supplement of paper PMC10307832.
# Experiments:
# Test in all cases: relative viability (nuclei count vs DMSO), 5 days (fraction); higher = more cells survive
# [1] = compound: C=CCNC1=C2C[C@@H](C)C[C@H](OC)[C@H](O)[C@@H](C)/C=C(\C)[C@H](OC(N)=O)[C@@H](OC)/C=C\C=C(/C)C(=O)NC(=CC1=O)C2=O [17-AAG] + C[C@@H](Oc1cc(-c2cnn(C3CCNCC3)c2)cnc1N)c1c(Cl)ccc(F)c1Cl [Crizotinib] (partner 1 µM)
# Outline: (§1)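 Lung cancer cell lines, seeded in 1536-well plates, were treated the following day by pin tool with a single drug or with five library-drug doses (not always all listed) in √10 steps on top of a fixed anchor-drug dose. Cells were fixed and nuclei stained in one step after 5 days, and nuclei were counted. Relative viability is the nuclei count for treated wells divided by that for vehicle wells, reported as medians of duplicate plates.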
# [2] = compound: C=CCNC1=C2C[C@@H](C)C[C@H](OC)[C@H](O)[C@@H](C)/C=C(\C)[C@H](OC(N)=O)[C@@H](OC)/C=C\C=C(/C)C(=O)NC(=CC1=O)C2=O [17-AAG] + Cc1nc(Nc2ncc(C(=O)Nc3c(C)cccc3Cl)s2)cc(N2CCN(CCO)CC2)n1 [Dasatinib] (partner 0.075 µM)
# Outline: as §1
# [3] = compound: C=CCNC1=C2C[C@@H](C)C[C@H](OC)[C@H](O)[C@@H](C)/C=C(\C)[C@H](OC(N)=O)[C@@H](OC)/C=C\C=C(/C)C(=O)NC(=CC1=O)C2=O [17-AAG] + CS(=O)(=O)N1CCN(Cc2cc3nc(-c4cccc5[nH]ncc45)nc(N4CCOCC4)c3s2)CC1 [Pictilisib] (partner 1 µM)
# Outline: as §1
# [4] = compound: C=CCNC1=C2C[C@@H](C)C[C@H](OC)[C@H](O)[C@@H](C)/C=C(\C)[C@H](OC(N)=O)[C@@H](OC)/C=C\C=C(/C)C(=O)NC(=CC1=O)C2=O [17-AAG] + O=C(CCCCCCC(=O)Nc1ccccc1)NO [Vorinostat] (partner 1 µM)
# Outline: as §1
Cell Line,relative viability ([1]; first compound 0.00128 µM),relative viability ([1]; first compound 0.004048 µM),relative viability ([1]; first compound 0.0128 µM),relative viability ([1]; first compound 0.04048 µM),relative viability ([1]; first compound 0.128 µM),relative viability ([2]; first compound 0.00128 µM),relative viability ([2]; first compound 0.004048 µM),relative viability ([2]; first compound 0.0128 µM),relative viability ([2]; first compound 0.04048 µM),relative viability ([2]; first compound 0.128 µM),relative viability ([3]; first compound 0.00128 µM),relative viability ([3]; first compound 0.004048 µM),relative viability ([3]; first compound 0.0128 µM),relative viability ([3]; first compound 0.04048 µM),relative viability ([3]; first compound 0.128 µM),relative viability ([4]; first compound 0.00128 µM),relative viability ([4]; first compound 0.004048 µM),relative viability ([4]; first compound 0.0128 µM),relative viability ([4]; first compound 0.04048 µM),relative viability ([4]; first compound 0.128 µM)
201T,1.04,1.07,1.02,0.886,0.805,0.551,0.618,0.438,0.352,0.262,0.679,0.667,0.663,0.546,0.424,0.932,0.945,0.858,0.55,0.252
A549,0.666,0.372,0.0579,0.0609,0.0363,–,–,–,–,–,0.543,0.114,0.0532,0.0751,0.0642,–,–,–,–,–
A-427,1.03,0.872,0.899,0.881,0.798,0.698,0.709,0.692,0.538,0.156,0.684,0.737,0.765,0.748,0.286,0.875,0.849,0.867,0.373,0.298
ABC-1,1.19,1.08,1.04,1.3,0.898,0.607,0.666,0.633,0.514,0.392,0.794,0.777,0.829,0.81,0.651,1.15,1.15,1.21,1.06,0.724
BEN,0.896,0.821,0.929,0.739,0.237,0.354,0.376,0.469,0.298,0.232,0.569,0.72,0.656,0.346,0.183,0.673,0.586,0.664,0.667,0.464
CAL-12T,0.676,0.775,0.646,0.778,0.255,0.475,0.396,0.456,0.326,0.0959,0.541,0.601,0.417,0.377,0.193,0.796,0.729,0.671,0.65,0.282
COR-L23,0.725,0.614,0.749,0.339,0.0896,0.58,0.451,0.504,0.313,0.0763,0.703,0.77,0.789,0.38,0.083,0.489,0.408,0.47,0.319,0.109
COR-L 105,0.961,0.9,0.793,0.568,0.661,0.388,0.306,0.356,0.202,0.263,0.394,0.434,0.435,0.324,0.298,0.876,0.983,0.783,0.728,0.439
Calu-6,0.842,0.77,0.775,0.202,0.109,–,–,–,–,–,0.913,0.867,0.762,0.199,0.133,–,–,–,–,–
ChaGo-K-1,1.11,1.07,1.03,0.628,0.293,0.507,0.636,0.464,0.335,0.186,0.759,0.801,0.7,0.477,0.26,0.749,0.776,0.691,0.49,0.214
EKVX,1.07,0.902,0.951,0.529,0.114,0.414,0.542,0.472,0.343,0.229,0.43,0.472,0.528,0.142,0.101,0.783,0.802,0.719,0.423,0.567
EMC-BAC-2,0.712,0.753,0.756,0.902,0.281,0.365,0.411,0.28,0.258,0.169,0.605,0.598,0.586,0.274,0.202,0.609,0.506,0.387,0.199,0.357
EPLC-272H,0.956,0.872,1.01,0.672,0.338,0.436,0.387,0.205,0.0643,0.0761,0.291,0.32,0.291,0.169,0.168,0.398,0.426,0.109,0.115,0.0985
H3255,0.926,0.833,0.646,0.196,0.161,0.427,0.345,0.374,0.204,0.207,0.424,0.453,0.463,0.203,0.154,0.898,0.864,0.82,0.282,0.292
HARA,1.05,1.05,1.06,1.12,0.725,0.234,0.278,0.261,0.284,0.141,0.49,0.445,0.385,0.16,0.164,0.485,0.586,0.517,0.396,0.097
HCC-15,0.767,0.758,0.456,0.4,0.132,0.617,0.434,0.0928,0.0907,0.0837,0.73,0.774,0.508,0.187,0.121,0.892,0.995,0.641,0.407,0.263
HCC-44,0.823,0.746,0.766,0.204,0.122,–,–,–,–,–,0.623,0.564,0.319,0.152,0.113,1.17,1.13,1.19,1.09,0.917
HCC-78,0.378,–,0.351,0.273,0.235,0.358,0.508,0.403,0.359,0.193,0.238,–,0.333,0.24,0.212,0.441,0.42,0.47,0.689,0.413
HCC-366,0.463,0.506,0.0283,0.018,0.0156,0.726,0.654,0.0387,0.0326,0.0293,0.16,0.0822,0.0477,0.0368,0.0284,0.305,0.374,0.149,0.0397,0.0268

Cell Line,relative viability ([1]; first compound 0.00128 µM),relative viability ([1]; first compound 0.004048 µM),relative viability ([1]; first compound 0.0128 µM),relative viability ([1]; first compound 0.04048 µM),relative viability ([1]; first compound 0.128 µM),relative viability ([2]; first compound 0.00128 µM),relative viability ([2]; first compound 0.004048 µM),relative viability ([2]; first compound 0.0128 µM),relative viability ([2]; first compound 0.04048 µM),relative viability ([2]; first compound 0.128 µM),relative viability ([3]; first compound 0.00128 µM),relative viability ([3]; first compound 0.004048 µM),relative viability ([3]; first compound 0.0128 µM),relative viability ([3]; first compound 0.04048 µM),relative viability ([3]; first compound 0.128 µM),relative viability ([4]; first compound 0.00128 µM),relative viability ([4]; first compound 0.004048 µM),relative viability ([4]; first compound 0.0128 µM),relative viability ([4]; first compound 0.04048 µM),relative viability ([4]; first compound 0.128 µM)
HCC-827,0.941,0.91,0.943,–,0.754,0.332,0.39,0.253,–,0.32,1.21,1.03,0.923,–,1.02,0.963,0.864,0.833,–,0.863
HOP-62,0.938,1.04,1.02,0.935,0.248,0.685,0.683,0.485,0.175,0.1,0.811,0.807,0.748,0.11,0.0928,0.687,0.563,0.452,0.141,0.083
IA-LM,0.807,0.663,0.758,0.291,0.0644,–,–,–,–,–,0.325,0.366,0.182,0.0706,0.0517,0.911,1.02,0.927,0.819,0.823
LC-2-ad,0.452,0.448,0.527,0.278,0.171,0.546,0.418,0.18,0.198,0.12,0.567,0.617,0.123,0.124,0.0943,0.701,0.719,0.732,0.318,0.182
LCLC-97TM1,0.325,0.387,0.433,0.395,0.295,0.796,0.813,0.777,0.224,0.159,0.263,0.228,0.211,0.13,0.104,0.848,0.668,0.634,0.44,0.0747
LCLC-103H,1.12,0.979,0.976,0.928,1.06,0.446,0.522,0.464,0.456,0.46,0.58,0.583,0.669,0.73,0.712,0.883,0.844,0.731,0.832,0.818
LK-2,0.212,0.249,0.357,0.232,0.176,0.285,0.396,0.224,0.157,0.116,0.725,0.659,0.6,0.208,0.175,0.323,0.445,0.178,0.174,0.236
LOU-NH91,0.666,0.624,0.516,0.365,0.353,0.535,0.421,0.359,0.295,0.273,0.573,0.515,0.451,0.384,0.332,0.86,0.735,0.547,0.482,0.336
NCI-H522,–,–,–,–,–,0.822,0.799,0.77,0.632,0.443,–,–,–,–,–,0.982,0.944,0.518,0.423,0.382
NCI-H1299,0.975,0.932,0.897,0.814,0.237,–,–,–,–,–,0.802,0.791,0.698,0.151,0.0717,–,–,–,–,–
NCI-H1395,–,–,–,–,–,0.429,0.366,0.304,0.326,0.287,0.659,0.614,0.381,0.354,0.435,0.626,0.607,0.415,0.366,0.368
NCI-H1563,0.903,0.836,0.562,0.462,0.473,0.493,0.504,0.481,0.42,0.324,0.67,0.647,0.604,0.614,0.563,–,–,–,–,–
NCI-H1648,–,–,–,–,–,–,–,–,–,–,–,–,–,–,–,–,0.433,0.362,0.538,0.243
NCI-H1703,0.611,0.634,0.129,0.151,0.119,–,–,–,–,–,0.235,0.181,0.188,0.168,0.141,–,–,–,–,–
NCI-H1792,0.997,1.02,0.897,0.848,0.19,0.761,0.75,0.611,0.493,0.31,0.326,0.308,0.253,0.171,0.143,–,–,–,–,–
NCI-H1793,–,–,–,–,–,0.437,0.243,0.14,0.122,0.129,0.309,0.172,0.193,0.188,0.144,0.687,0.656,0.283,0.189,0.148
NCI-H2342,–,–,–,–,–,0.294,0.394,0.306,0.293,0.3,–,–,–,–,–,0.651,0.86,0.715,0.668,0.409
SW 900,–,–,–,–,–,0.731,0.314,0.118,0.0729,0.0968,–,–,–,–,–,0.51,0.547,0.23,0.138,0.131
